Among the data in patent US11020333B2, “Organic compounds” (Givaudan SA, priority 2016, dated 2021) are odor threshold value values, retold here.

A short description of the assay: Determination of GC-odor threshold values (gas chromatograph with sniff port, panel of trained evaluators). To be noted: absolute amount of compound delivered at the sniff port, identical conditions. The source says: As used herein, “odor threshold value” means the lowest concentration of a vapour in the air which can be detected by smell. Generally speaking, it can be said that a compound with a low odor threshold value is more powerful than a compound with a high odor threshold value and thus allows the use of very low concentration in a fragrance composition to achieve an olfactory effect.
EXAMPLE 24: DETERMINATION OF GC-ODOR THRESHOLD VALUES
According to standard procedures known to the person skilled in the art, threshold values for volatile perfumery compounds are determined on a gas chromatograph equipped with a sniff port by a panel of trained evaluators. The lowest concentration smelled by each panelist is recorded as the individual threshold value expressed in ng (absolute amount of compound delivered at the sniff port).
Under identical conditions the odor threshold value for the individual compounds was measured.
The molecule `CCCc1ccc2c(c1)CC(C)C2=O` (centres unmarked) [2-methyl-5-propyl-2,3-dihydro-1H-inden-1-one] showed an odor threshold value of 0.98 ng.

Take `C=C(C)Cc1cccc2c1C(=O)C(C)C2` (centres unmarked) [2-methyl-7-(2-methylallyl)-2,3-dihydro-1H-inden-1-one]: the odor threshold value is 4.96 ng.

Turning to `CC1Cc2cccc(C3CC3)c2C1=O` (centres unmarked) [7-cyclopropyl-2-methyl-2,3-dihydro-1H-inden-1-one], the odor threshold value stood at 4.31 ng.

For `CC(C)Cc1ccc2c(c1)CC(C)C2=O` (centres unmarked) [Comparison Example 1, 5-isobutyl-2-methyl-2,3-dihydro-1H-inden-1-one], the odor threshold value is recorded as 1.56 ng.

As to `CCCc1cccc2c1CC(C)C2=O` (centres unmarked) [Comparison Example 3, 2-methyl-4-propyl-2,3-dihydro-1H-inden-1-one], the odor threshold value is on record as 6.25 ng.

`C=C(C)Cc1cccc2c1CC(C)C2=O` (centres unmarked) [Comparison Example 5, 2-methyl-4-(2-methylallyl)-2,3-dihydro-1H-inden-1-one] displayed an odor threshold value of 6.25 ng.

Regarding `CC1Cc2c(cccc2C2CC2)C1=O` (centres unmarked) [Comparison Example 7, 4-cyclopropyl-2-methyl-2,3-dihydro-1H-inden-1-one], the odor threshold value came to 31.7 ng.

For the molecule `CC(C)Cc1ccc2c(c1)C(=O)C(C)C2` (centres unmarked) [Example 1, 6-isobutyl-2-methyl-2,3-dihydro-1H-inden-1-one], the odor threshold value stood at 0.06 ng.

Molecule `CCCc1ccc2c(c1)C(=O)C(C)C2` (centres unmarked) [Example 7, 2-methyl-6-propyl-2,3-dihydro-1H-inden-1-one] yielded an odor threshold value of 0.04 ng.

Consider `CC1Cc2ccc(C3CC3)cc2C1=O` (centres unmarked) [Example 11, 6-cyclopropyl-2-methyl-2,3-dihydro-1H-inden-1-one], for which the odor threshold value stood at 0.46 ng.

As to `C=C(C)Cc1ccc2c(c1)C(=O)C(C)C2` (centres unmarked) [Example 22, 2-methyl-6-(2-methylallyl)-2,3-dihydro-1H-inden-1-one], the odor threshold value was found to be 0.24 ng.
